Patent US9260397B2, “Salts comprising aryl-alkyl-substituted imidazolium and triazolium cations and the use thereof” (TECHNISCHE UNIVERSITAET DRESDEN, priority 2008, dated 2016)

Experiments:
[1] = Thermal stability (decomposition point); assay type: physicochemical
[2] = Solubility in ether or THF; assay type: physicochemical
Description: To 80 mg 1-mesityl-3-tetradecyl imidazolium tetrafluoroborate (Example 97) 4 ml diethylether or 2 ml tetrahydrofuran are added.

Row | Compound | Decomposition point [1] | solubility in tetrahydrofuran ([2]; 80 mg in 2 ml tetrahydrofuran) | solubility in diethylether ([2]; 80 mg in 4 ml diethylether)
1 | 1-butyl-3-mesitylimidazolium bis(trifluoromethylsulfone)imide [Example 70] | 440 °C |  | 
2 | 1-heptyl-3-mesitylimidazolium bis(trifluoromethylsulfone)imide [Example 73] | 440 °C |  | 
3 | 1-hexyl-3-mesitylimidazolium bis(trifluoromethylsulfone)imide [Example 72] | 440 °C |  | 
4 | 1-mesityl-3-pentylimidazolium bis(trifluoromethylsulfone)imide [Example 71] | 440 °C |  | 
5 | 1-mesityl-3-propylimidazolium bis(trifluoromethylsulfone)imide [Example 69] | 440 °C |  | 
6 | CCCCCCCCCCCCCC[n+]1ccn(-c2c(C)cc(C)cc2C)c1.F[B-](F)(F)F [1-mesityl-3-tetradecyl imidazolium tetrafluoroborate] |  | dissolved easily | not dissolved
